Earlier results, collected in patent US11648199B2 (AI Therapeutics, Inc, priority 2014, dated 2023).

How the values were obtained:
[1] = cancer patients administered temsirolimus or everolimus; cited from earlier work
[2] = clinical use; cited from earlier work

Compound | patients who may experience mild grade pulmonary toxicity [1] [%] | lung toxicity [2]
CO[C@H]1C[C@@H]2CC[C@@H](C)[C@@](O)(O2)C(=O)C(=O)N2CCCC[C@H]2C(=O)O[C@H]([C@H](C)C[C@@H]2CC[C@@H](OCCO)[C@H](OC)C2)CC(=O)[C@H](C)/C=C(\C)[C@@H](O)[C@@H](OC)C(=O)[C@H](C)C[C@H](C)/C=C/C=C/C=C/1C [everolimus] | 10 | –
C=CC[C@@H]1/C=C(\C)C[C@H](C)C[C@H](OC)[C@H]2O[C@@](O)(C(=O)C(=O)N3CCCC[C@H]3C(=O)O[C@H](/C(C)=C/[C@@H]3CC[C@@H](O)[C@H](OC)C3)[C@H](C)[C@@H](O)CC1=O)[C@H](C)C[C@@H]2OC [tacrolimus] | – | did not show lung toxicity
CO[C@H]1C[C@@H]2CC[C@@H](C)[C@@](O)(O2)C(=O)C(=O)N2CCCC[C@H]2C(=O)O[C@H]([C@H](C)C[C@@H]2CC[C@@H](OC(=O)C(C)(CO)CO)[C@H](OC)C2)CC(=O)[C@H](C)/C=C(\C)[C@@H](O)[C@@H](OC)C(=O)[C@H](C)C[C@H](C)/C=C/C=C/C=C/1C [temsirolimus] | 10 | –
